Where a SMILES comes first, the peptide text is derived from it. Bridges are numbered along the chain shown (N, C = ends). [ ]: non-standard residue; d: D form. The star is where a group is joined. hPhe(3-Cl-4-CF3) = N[C@@H](CCc1ccc(C(F)(F)F)c(Cl)c1)C(=O)O; NPrPhe(4-CF3) = CCCN[C@@H](Cc1ccc(C(F)(F)F)cc1)C(=O)O; NMeGly(cPent) = CN[C@H](C(=O)O)C1CCCC1; Pro(4,4-Me2) = CC1(C)CN[C@H](C(=O)O)C1; Pro(4S-Me) = C[C@@H]1CN[C@H](C(=O)O)C1; NMeD = CN[C@@H](CC(=O)O)C(=O)O; NMeL = CN[C@@H](CC(C)C)C(=O)O; Morpholide = C1CN(*)CCO1; NMeA = CN[C@@H](C)C(=O)O; Ac5c = NC1(C(=O)O)CCCC1; Aze = O=C(O)[C@@H]1CCN1; NEtG = CCNCC(=O)O; Sar = CNCC(=O)O
Key:
HRAS wild-type protein = HRAS wild-type protein (Homo sapiens, UniProt P01112); test: Binding to HRAS by surface plasmon resonance (SPR), KD and KD ratio to KRAS; details: ratio of the KD value with respect to HRAS wild-type protein to the KD value with respect to KRAS
Summary of the method: (§1)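 Biotinylated GDP-bound RAS was captured at about 100–300 RU. Running buffer: HBS pH 7.4, 10 mM MgCl2, 10 µM GDP, 1 mM DTT, 0.01% Tween 20, 4% DMSO.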

[1] = system: human lung cancer strain NCI-H441; type: cell-based
Summary of the method: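 Step one: dispense the test compound in serial DMSO dilutions. Step three: add the reagent and measure […].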

[2] = molecular target: GDP-bound NRAS wild-type protein (Homo sapiens, UniProt P01111); test: Binding to NRAS by surface plasmon resonance (SPR), KD and KD ratio to KRAS; details: ratio of the KD value with respect to GDP-bound NRAS wild-type protein to the KD value with respect to KRAS
Summary of the method: as §1

HRAS wild-type protein, sequence (P01112 whole entry): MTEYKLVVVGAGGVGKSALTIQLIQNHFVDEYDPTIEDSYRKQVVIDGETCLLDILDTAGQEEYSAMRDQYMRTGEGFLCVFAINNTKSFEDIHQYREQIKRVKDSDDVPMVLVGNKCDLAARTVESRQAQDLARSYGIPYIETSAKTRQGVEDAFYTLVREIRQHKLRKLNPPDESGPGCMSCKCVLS
GDP-bound NRAS wild-type protein, sequence (P01111 whole entry): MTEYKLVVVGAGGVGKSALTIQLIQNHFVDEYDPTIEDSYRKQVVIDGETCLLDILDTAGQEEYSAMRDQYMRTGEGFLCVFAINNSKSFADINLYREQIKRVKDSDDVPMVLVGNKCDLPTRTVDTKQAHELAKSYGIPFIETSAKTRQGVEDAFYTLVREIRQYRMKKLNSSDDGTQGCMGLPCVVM

SMILES	HRAS /KRAS (HRAS wild-type protein)	IC50 [1]	NRAS /KRAS [2]
CCCN1C(=O)CN(C)C(=O)CN(C)C(=O)[C@H]([C@@H](C)CC)NC(=O)[C@H](CC(C)C)N(C)C(=O)C[C@@H](C(=O)N2CCOCC2)N(C)C(=O)[C@H](C2CCCC2)N(C)C(=O)C2(CCCC2)NC(=O)[C@@H]2CC(C)(C)CN2C(=O)[C@H](CCc2ccc(C(F)(F)F)c(Cl)c2)NC(=O)CN(C)C(=O)[C@@H]1Cc1ccc(C(F)(F)F)cc1 [PP0446] ([NMeL]I[Sar][Sar][NPrPhe(4-CF3)][Sar][hPhe(3-Cl-4-CF3)][Pro(4,4-Me2)][Ac5c][NMeGly(cPent)][NMeD]-Morpholide; lactam N-11)	C (A compound having a KD ratio of 0.1 or more and less than 3 is denoted as C)	1.6 nM	B (a compound having 3 or more and less than 10 is denoted as B)
CCCN1C(=O)CN(C)C(=O)CN(C)C(=O)[C@H]([C@@H](C)CC)NC(=O)[C@H](CC(C)C)N(C)C(=O)C[C@@H](C(=O)N2CCOCC2)N(C)C(=O)[C@H](C2CCCC2)N(C)C(=O)C2(CCCC2)NC(=O)[C@@H]2C[C@H](C)CN2C(=O)[C@H](CCc2ccc(C(F)(F)F)c(Cl)c2)NC(=O)CN(C)C(=O)[C@@H]1Cc1ccc(C(F)(F)F)cc1 [PP0447] ([NMeL]I[Sar][Sar][NPrPhe(4-CF3)][Sar][hPhe(3-Cl-4-CF3)][Pro(4S-Me)][Ac5c][NMeGly(cPent)][NMeD]-Morpholide; lactam N-11)	C (A compound having a KD ratio of 0.1 or more and less than 3 is denoted as C)	3.9 nM	B (a compound having 3 or more and less than 10 is denoted as B)
CCCN1C(=O)CN(C)C(=O)CNC(=O)[C@H]([C@@H](C)CC)NC(=O)[C@H](CC(C)C)N(C)C(=O)C[C@@H](C(=O)N2CCOCC2)N(C)C(=O)[C@H](C2CCCC2)N(C)C(=O)C2(CCCC2)NC(=O)[C@@H]2CC(C)(C)CN2C(=O)[C@H](CCc2ccc(C(F)(F)F)c(Cl)c2)NC(=O)CN(C)C(=O)[C@@H]1Cc1ccc(C(F)(F)F)cc1 [PP0448] ([NMeL]IG[Sar][NPrPhe(4-CF3)][Sar][hPhe(3-Cl-4-CF3)][Pro(4,4-Me2)][Ac5c][NMeGly(cPent)][NMeD]-Morpholide; lactam N-11)	C (A compound having a KD ratio of 0.1 or more and less than 3 is denoted as C)	2 nM	B (a compound having 3 or more and less than 10 is denoted as B)
CCCN1C(=O)CN(C)C(=O)CNC(=O)[C@H]([C@@H](C)CC)NC(=O)[C@H](CC(C)C)N(C)C(=O)C[C@@H](C(=O)N2CCOCC2)N(C)C(=O)[C@H](C2CCCC2)N(C)C(=O)C2(CCCC2)NC(=O)[C@@H]2C[C@H](C)CN2C(=O)[C@H](CCc2ccc(C(F)(F)F)c(Cl)c2)NC(=O)CN(C)C(=O)[C@@H]1Cc1ccc(C(F)(F)F)cc1 [PP0449] ([NMeL]IG[Sar][NPrPhe(4-CF3)][Sar][hPhe(3-Cl-4-CF3)][Pro(4S-Me)][Ac5c][NMeGly(cPent)][NMeD]-Morpholide; lactam N-11)	C (A compound having a KD ratio of 0.1 or more and less than 3 is denoted as C)	9.2 nM	C (A compound having a KD ratio of 0.1 or more and less than 3 is denoted as C)
CCCN1C(=O)CN(C)C(=O)CN(CC)C(=O)[C@H]([C@@H](C)CC)NC(=O)[C@H](CC(C)C)N(C)C(=O)C[C@@H](C(=O)N2CCOCC2)N(C)C(=O)[C@H](C2CCCC2)N(C)C(=O)C2(CCCC2)NC(=O)[C@@H]2CC(C)(C)CN2C(=O)[C@H](CCc2ccc(C(F)(F)F)c(Cl)c2)NC(=O)CN(C)C(=O)[C@@H]1Cc1ccc(C(F)(F)F)cc1 [PP0450] ([NMeL]I[NEtG][Sar][NPrPhe(4-CF3)][Sar][hPhe(3-Cl-4-CF3)][Pro(4,4-Me2)][Ac5c][NMeGly(cPent)][NMeD]-Morpholide; lactam N-11)	C (A compound having a KD ratio of 0.1 or more and less than 3 is denoted as C)	8.4 nM	B (a compound having 3 or more and less than 10 is denoted as B)
CCCN1C(=O)[C@@H]2CCN2C(=O)[C@H](C)N(C)C(=O)[C@H]([C@@H](C)CC)NC(=O)[C@H](CC(C)C)N(C)C(=O)C[C@@H](C(=O)N2CCOCC2)N(C)C(=O)[C@H](C2CCCC2)N(C)C(=O)C2(CCCC2)NC(=O)[C@@H]2CC(C)(C)CN2C(=O)[C@H](CCc2ccc(C(F)(F)F)c(Cl)c2)NC(=O)CN(C)C(=O)[C@@H]1Cc1ccc(C(F)(F)F)cc1 [PP0454] ([NMeL]I[NMeA][Aze][NPrPhe(4-CF3)][Sar][hPhe(3-Cl-4-CF3)][Pro(4,4-Me2)][Ac5c][NMeGly(cPent)][NMeD]-Morpholide; lactam N-11)	C (A compound having a KD ratio of 0.1 or more and less than 3 is denoted as C)	2.9 nM	C (A compound having a KD ratio of 0.1 or more and less than 3 is denoted as C)
CCCN1C(=O)[C@@H]2CCN2C(=O)CN(C)C(=O)[C@H]([C@@H](C)CC)NC(=O)[C@H](CC(C)C)N(C)C(=O)C[C@@H](C(=O)N2CCOCC2)N(C)C(=O)[C@H](C2CCCC2)N(C)C(=O)C2(CCCC2)NC(=O)[C@@H]2CC(C)(C)CN2C(=O)[C@H](CCc2ccc(C(F)(F)F)c(Cl)c2)NC(=O)CN(C)C(=O)[C@@H]1Cc1ccc(C(F)(F)F)cc1 [PP0456] ([NMeL]I[Sar][Aze][NPrPhe(4-CF3)][Sar][hPhe(3-Cl-4-CF3)][Pro(4,4-Me2)][Ac5c][NMeGly(cPent)][NMeD]-Morpholide; lactam N-11)	C (A compound having a KD ratio of 0.1 or more and less than 3 is denoted as C)	7 nM	C (A compound having a KD ratio of 0.1 or more and less than 3 is denoted as C)
CCCN1C(=O)[C@@H]2CCN2C(=O)CN(C)C(=O)[C@H]([C@@H](C)CC)NC(=O)[C@H](CC(C)C)N(C)C(=O)C[C@@H](C(=O)N2CCOCC2)N(C)C(=O)[C@H](C2CCCC2)N(C)C(=O)C2(CCCC2)NC(=O)[C@@H]2C[C@H](C)CN2C(=O)[C@H](CCc2ccc(C(F)(F)F)c(Cl)c2)NC(=O)CN(C)C(=O)[C@@H]1Cc1ccc(C(F)(F)F)cc1 [PP0457] ([NMeL]I[Sar][Aze][NPrPhe(4-CF3)][Sar][hPhe(3-Cl-4-CF3)][Pro(4S-Me)][Ac5c][NMeGly(cPent)][NMeD]-Morpholide; lactam N-11)	B (a compound having 3 or more and less than 10 is denoted as B)	12.1 nM	C (A compound having a KD ratio of 0.1 or more and less than 3 is denoted as C)
CC[C@H](C)[C@@H]1NC(=O)[C@H](CC(C)C)N(C)C(=O)C[C@@H](C(=O)N2CCOCC2)N(C)C(=O)[C@H](C2CCCC2)N(C)C(=O)C2(CCCC2)NC(=O)[C@@H]2CCCN2C(=O)[C@H](CCc2ccc(C(F)(F)F)c(Cl)c2)NC(=O)CN(C)C(=O)[C@H](Cc2ccc(C)cc2)N2CC/C=C\C[C@@H](C2=O)N(C)C(=O)CN(C)C1=O [PP0461]	A (a compound having 10 or more and less than 20 is denoted as A)	23.2 nM	A (a compound having 10 or more and less than 20 is denoted as A)
CC[C@H](C)[C@@H]1NC(=O)[C@H](CC(C)C)N(C)C(=O)C[C@@H](C(=O)N2CCOCC2)N(C)C(=O)[C@H](C2CCCC2)N(C)C(=O)C2(CCCC2)NC(=O)[C@@H]2CCCN2C(=O)[C@H](CCc2ccc(C(F)(F)F)c(Cl)c2)NC(=O)CN(C)C(=O)[C@H](Cc2ccc(C(F)(F)F)cc2)N2CC=CC[C@@H](C2=O)N(C)C(=O)CN(C)C1=O [PP0462]	C (A compound having a KD ratio of 0.1 or more and less than 3 is denoted as C)	15.1 nM	C (A compound having a KD ratio of 0.1 or more and less than 3 is denoted as C)
CC[C@H](C)[C@@H]1NC(=O)[C@H](CC(C)C)N(C)C(=O)C[C@@H](C(=O)N2CCOCC2)N(C)C(=O)[C@H](C2CCCC2)N(C)C(=O)C2(CCCC2)NC(=O)[C@@H]2CCCN2C(=O)[C@H](CCc2ccc(C(F)(F)F)c(Cl)c2)NC(=O)CN(C)C(=O)[C@H](Cc2ccc(C(F)(F)F)cc2)N2CC/C=C\C[C@@H](C2=O)N(C)C(=O)CN(C)C1=O [PP0463]	A (a compound having 10 or more and less than 20 is denoted as A)	26.3 nM	A (a compound having 10 or more and less than 20 is denoted as A)
CC[C@H](C)[C@@H]1NC(=O)[C@H](CC(C)C)N(C)C(=O)C[C@@H](C(=O)N2CCOCC2)N(C)C(=O)[C@H](C2CCCC2)N(C)C(=O)C2(CCC2)NC(=O)[C@@H]2CC(F)(F)CN2C(=O)[C@H](CCc2cc(F)c(C(F)(F)F)c(F)c2)NC(=O)CN(C)C(=O)[C@H](Cc2ccc(C(F)(F)F)cc2)N2CCCCC[C@@H](C2=O)N(C)C(=O)CN(C)C1=O [PP0464]	B (a compound having 3 or more and less than 10 is denoted as B)	17.6 nM	B (a compound having 3 or more and less than 10 is denoted as B)
CC[C@H](C)[C@@H]1NC(=O)[C@H](CC(C)C)N(C)C(=O)C[C@@H](C(=O)N(C)C)N(C)C(=O)[C@H](C2CCCC2)N(C)C(=O)C2(CCCC2)NC(=O)[C@@H]2CC(F)(F)CN2C(=O)[C@H](CCc2cc(F)c(C(F)(F)F)c(F)c2)NC(=O)CN(C)C(=O)[C@H](Cc2ccc(C(F)(F)F)cc2)N2CCCCC[C@@H](C2=O)N(C)C(=O)CN(C)C1=O [PP0465]	B (a compound having 3 or more and less than 10 is denoted as B)	18 nM	B (a compound having 3 or more and less than 10 is denoted as B)
CC[C@H](C)[C@@H]1NC(=O)[C@H](CC(C)C)N(C)C(=O)C[C@@H](C(=O)N(C)C)N(C)C(=O)[C@H](C2CCCC2)N(C)C(=O)C2(CCC2)NC(=O)[C@@H]2CC(F)(F)CN2C(=O)[C@H](CCc2cc(F)c(C(F)(F)F)c(F)c2)NC(=O)CN(C)C(=O)[C@H](Cc2ccc(C(F)(F)F)cc2)N2CCCCC[C@@H](C2=O)N(C)C(=O)CN(C)C1=O [PP0466]	B (a compound having 3 or more and less than 10 is denoted as B)	22.6 nM	B (a compound having 3 or more and less than 10 is denoted as B)
